Assay results from article PMC4532424, “The Novel Cyclophilin Inhibitor CPI-431-32 Concurrently Blocks HCV and HIV-1 Infections via a Similar Mechanism of Action” (PLoS ONE, 2015).
Where two headings read alike, the source gives them in different places. Non-standard residues stand in square brackets, D forms with d. Residues, ends and D or L forms follow the SMILES beside them. NMeThr(4R-Me,4-(CH2)6NHAc) = CN[C@H](C(=O)O)[C@H](O)[C@H](C)CCCCCCNC(C)=O; NMeL = CN[C@@H](CC(C)C)C(=O)O; NMeV = CN[C@H](C(=O)O)C(C)C; dNMeA = CN[C@H](C)C(=O)O; Abu = CC[C@H](N)C(=O)O

Experiments:
CypA-HCV NS5A complex = CypA-HCV NS5A complex (Homo sapiens, UniProt P62937); assay: CypA-HCV NS5A interaction ELISA; details: Table 2; NS5A-His on GST-CypA-coated plates, 16 h at 4°C; read-out: IC50, inhibition of NS5A binding to CypA
Chain of CypA-HCV NS5A complex (P62937 whole entry, one chain of several): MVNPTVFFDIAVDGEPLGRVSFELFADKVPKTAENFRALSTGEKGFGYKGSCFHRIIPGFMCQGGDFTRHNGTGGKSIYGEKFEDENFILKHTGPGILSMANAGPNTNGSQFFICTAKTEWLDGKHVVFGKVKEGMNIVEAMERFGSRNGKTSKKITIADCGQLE
Method: Recombinant GST-CypA, full-length HCV NS5A Con1 (pET-Ub-NS5A Con1-His) and HIV-1 capsid NL4.3 (pET-capsid-His) were expressed and purified as described previously. Inhibition of CypA-HCV NS5A and CypA-HIV-1 capsid interactions by the CypI […] were conducted as we described previously.
CypI are thought to inhibit the infection of HIV-1 and HCV mostly by preventing CypA-HIV-1 capsid and CypA-HCV NS5A interactions, respectively. The potency of CypI at inhibiting these interactions was determined using an ELISA assay previously developed in our laboratory. For analyzing CypA-HCV NS5A interactions, recombinant NS5A-His was added to GST-CypA-coated wells for 16 h at 4°C in the absence or presence of CypI, followed by detection of captured NS5A-His with anti-His antibodies. A similar assay was used for CypA-HIV-1 interactions except with recombinant His-tagged HIV-1 capsid.

[1] = system: HIV-1 ALV-resistant (NL4.3 V86P/H87Q/I91V/M96I); assay: HIV-1 infection of TZM reporter cells, β-galactosidase; type: cell-based; details: read-out: EC50, inhibition of HIV-1 infection
Description: (§1) the reverse transcriptase inhibitor-resistant HIV-1 variant (nevirapine-resistant N119), the protease inhibitor-resistant HIV-1 variant (saquinavir-resistant), and the naturally occurring primary ALV-resistant variant CMU08 (contributed by Kenrad Nelson) were obtained from the AIDS Research and Reference Reagent Program. Lab-adapted wild-type NL4.3 and the ALV-resistant V86P/H87Q/I91V/M96I NL4.3 capsid mutant variant were described previously. For infection scoring, TZM-bl target cells (contributed by J. C. Kappes, X. Wu, and Tranzyme, Inc.) obtained through the AIDS Research and Reference Reagent Program were exposed to wild-type or drug-resistant HIV-1 variants (1 ng of p24) together with increasing concentrations of DMSO or CypI. HIV-1 infection was quantified 48 h post-infection by measuring β-galactosidase activity in cell lysates.
(§2) We then tested the efficacy of CPI-431-32 and ALV against a panel of drug-resistant HIV-1 and HCV variants. Specifically, we measured CPI-431-32 EC50 on a reverse transcriptase inhibitor-resistant HIV-1 variant (nevirapine-resistant), a protease inhibitor-resistant HIV-1 variant (saquinavir-resistant), and two partially ALV-resistant HIV-1 variants—a lab-adapted resistant variant (V86P/H87Q/I91V/M96I capsid mutant) and a naturally occurring primary partially resistant variant (CMU08). […] HIV-1 infection was quantified 48 h post-infection by measuring β-galactosidase activity in cell lysates.

[2] = system: HIV-1 protease (saquinavir)-resistant; assay: as above; type: cell-based; details: read-out: EC50, inhibition of HIV-1 infection
Description: as §1, §2

HIV-1 wild-type (NL4.3) = assay: as above; type: cell-based; details: read-out: EC50, inhibition of HIV-1 infection
Description: as §1, §2

[3] = system: HIV-1 reverse transcriptase (nevirapine)-resistant; assay: as above; type: cell-based; details: read-out: EC50, inhibition of HIV-1 infection
Description: as §1, §2

[4] = system: HIV-1 ALV-resistant (CMU8); assay: as above; type: cell-based; details: read-out: EC50, inhibition of HIV-1 infection
Description: as §1, §2

Human recombinant CypA = target: T1, Human recombinant CypA (Homo sapiens, UniProt P62937); assay: α-chymotrypsin-coupled CypA isomerase inhibition assay; type: biochemical; details: one representative experiment, mean ± SD; 10 nM CypA, 5°C
T1 construct: purchased Atgen
T1 sequence (P62937 whole entry): as the sequence (P62937 whole entry, one chain of several) above
Method: Succinyl-AAPF-pNA peptide substrate (Sigma) was dissolved to 3.2 mM in dried LiCl/trifluoroethanol. […] All solutions were equilibrated, and reactions conducted at 5°C. Reactions were initiated by mixing 95 μL reaction mix with 5 μL peptide preloaded in multiple wells of 96-well plates and measuring OD405 nm in each well at 6-sec intervals for 6 min using a BMG Polarstar Galaxy plate reader. Data were fitted with Graphpad Prism 6.0 to obtain first-order rate constants.

HCV JFH-1 = assay: HIV-1/HCV co-culture co-infection, HCV core ELISA; type: cell-based
Method: (§3) CD4+ T-lymphocytes and Huh7.5.1 cells uninfected or infected for 3 h as described above were mixed in a single flask and HIV-1 and HCV replication monitored over a period of 3 weeks as described above.
(§4) HIV-1 target cells—CD4+ T-lymphocytes—and HCV target cells—hepatoma cells—were placed in a single chamber (flask), exposed to both HIV-1 and HCV, and viral replication monitored over time by p24 capsid and core ELISAs, respectively.
(§5) CD4+ T-lymphocytes (A) and Huh7.5.1 cells (B) (0.5 x 10^6 cells) (triplicates) were exposed to HIV-1 JR-CSF and HCV JFH-1. Drugs (2 μM) were added 3 h pre-viral exposure (top panels) or 3 days post-viral exposure (bottom panels). Viral replications were monitored by HIV-1 p24 and HCV core ELISAs. C. CD4+ T-lymphocytes (0.5 x 10^6 cells) (triplicates) were exposed to HIV-1 JR-CSF. Drugs were initially added 3 days post-viral exposure (2 μM) and then daily (0.5 μM). Viral replications were monitored by HIV-1 p24 and HCV core ELISAs. […] D. Model for the HIV-1/HCV co-culture system.

HIV-1 JR-CSF [5] = assay: HIV-1 mono-infection of CD4+ T-lymphocytes, p24 ELISA; type: cell-based; details: Fig 1A
Description: Hemoglobin determinations at every donation protect the donor from phlebotomy-induced anemia. The donor pool also provides investigators with a mix of gender and minority subjects, and recruitment is ongoing for underrepresented minorities. At the present time, the NBDS has 320 active normal blood donors enrolled. Use of the Normal Blood Donor Service is considered “human subjects” research and each investigator who wants to use the service must submit a protocol to the IRB for review and approval. Dr. Gallay has current IRB approval for the human blood obtained for research described in this manuscript. Protocol No: IRB-15-6552. Full name of the IRB is "Scripps IRB". […] Consent from blood donors was obtained verbally. The authors have no access to identifying donor information for these samples.

HIV-1 JR-CSF [6] = assay: HIV-1/HCV co-culture co-infection, HIV-1 p24 ELISA; type: cell-based
Method: as §3, §4, §5

[7] = drug treatments begun 3 h before virus addition
[8] = single dose added 3 days post-infection
[9] = Human immunodeficiency virus 1, TZM, 48 h

Row | Structure (SMILES) | IC50 (CypA-HCV NS5A complex) [nM] | EC50 ([1]; HIV-1 ALV-resistant (NL4.3 V86P/H87Q/I91V/M96I), TZM cells, 48 h post-infection) [nM] | EC50 ([2]; HIV-1 protease (saquinavir)-resistant, TZM cells, 48 h post-infection) [nM] | EC50 (HIV-1 wild-type (NL4.3); 48 h post-infection) [nM] | EC50 ([3]; HIV-1 reverse transcriptase (nevirapine)-resistant, TZM cells, 48 h post-infection) [nM] | EC50 ([4]; HIV-1 ALV-resistant (CMU8), TZM cells, 48 h post-infection) [µM] | IC50 (Human recombinant CypA) [nM] | Effect on HCV replication (in words) (HCV JFH-1; [7]) | Effect on HCV replication (in words) (HCV JFH-1; [8]) | Effect on HIV-1 replication (in words) (HIV-1 JR-CSF [5]) | Effect on HIV-1 replication (in words) (HIV-1 JR-CSF [6]; [7]) | Effect on HIV-1 replication (in words) (HIV-1 JR-CSF [6]; [8]) | EC50 [1, 9] [nM] | EC50 [2, 9] [nM] | EC50 (HIV-1 wild-type (NL4.3); Human immunodeficiency virus 1, 48 h post-infection) [nM] | EC50 [3, 9] [nM] | EC50 [4, 9] [µM]
1 | CC[C@@H]1NC(=O)[C@H]([C@H](O)[C@H](C)CCCCCCNC(C)=O)N(C)C(=O)[C@H](C(C)C)N(C)C(=O)[C@H](CC(C)C)N(C)C(=O)[C@H](CC(C)C)N(C)C(=O)[C@@H](C)NC(=O)[C@H](C)NC(=O)[C@H](CC(C)C)N(C)C(=O)[C@H](C(C)C)NC(=O)[C@H](CC(C)C)N(C)C(=O)[C@@H](C)N(C)C1=O [CPI-431-32] (cyclo(A[dA][NMeL][NMeL][NMeV][NMeThr(4R-Me,4-(CH2)6NHAc)][Abu][dNMeA][NMeL]V[NMeL])) | 180 ± 30 | 900 ± 100 | 70 ± 20 | 50 ± 10 | 30 ± 10 | 2.1 ± 0.1 | 1.8 ± 0.6 | completely prevented | immediately and gradually caused a decline in HCV levels | efficiently blocked viral growth | totally prevented HIV-1 replication | halted HIV-1 replication | – | – | – | – | –
2 | C/C=C/C[C@@H](C)[C@@H](O)[C@H]1C(=O)N[C@@H](CC)C(=O)N(C)[C@H](C)C(=O)N(CC)[C@@H](C(C)C)C(=O)N[C@@H](C(C)C)C(=O)N(C)[C@@H](CC(C)C)C(=O)N[C@@H](C)C(=O)N[C@H](C)C(=O)N(C)[C@@H](CC(C)C)C(=O)N(C)[C@@H](CC(C)C)C(=O)N(C)[C@@H](C(C)C)C(=O)N1C [ALV, Alisporivir] | 420 ± 50 | – | – | – | – | – | 2.8 ± 0.4 | completely prevented | immediately and gradually caused a decline in HCV levels | efficiently blocked viral growth | totally prevented HIV-1 replication | a small degree of replication occurred within the first 3 days of addition | 2300 ± 300 | 160 ± 20 | 120 ± 30 | 100 ± 20 | 5.6 ± 0.4
